Reference: patent publication US20250179078A1, “INHIBITORS OF NLRP3” (PTC THERAPEUTICS, INC., priority 2022, published 2025)

Molecular target: T1, NLRP3 (Homo sapiens, UniProt Q96P20)
T1 construct: host or cells: THP-1 cells differentiated with PMA
Experiment: IL-1β Secretion Assay (NLRP3-dependent IL1β secretion in THP1 cells)
Assay type: cell-based
Settings: PMA-differentiated THP-1 cells; compounds incubated 20 h; 2.5 μM Nigericin 3 h; HTRF IL-1β readout; read-out: IC50 IL-1β Inhibition
Experimental: Monocytic THP-1 cells (ATCC: TIB-202) were maintained in growth media consisting of RPMI 1640 medium (ThermoFisher, Cat #11875-085), 10% FBS (ThermoFisher) and 0.05 mM β-mercaptoethanol (ThermoFisher, Cat #21985-023), according to the provider's instructions. The cell concentration was adjusted to 7.5×10^5 cells/mL, and plated in complete growth media with a final concentration of 100 ng/mL phorbol 12-myristate 13-acetate (PMA, Sigma #P8139). Cells were seeded at 100 µL/well into a 96-well cell culture plate (ThermoFisher Cat #165305) and allowed to differentiate for 24 h in a cell culture incubator at 37° C. with 5% CO2. Cells were washed 1× with 100 ul PBS and replaced with fresh RPMI+5% FBS. Compounds were serial diluted in DMSO with 3 fold dilution for a total of 7 concentrations. Diluted compounds were added to the cells at a ratio of 1:200 and incubated for 20 h. The NLRP3 inflammasome was activated with the addition of 2.5 μM Nigericin (Sigma: Cat #SML1779-1 ml), for 3 h. After incubation, 15 μL of conditioned media was removed and assayed for levels of IL-1β using the HTRF IL-1β assay kit (Cisbio: Cat #62HIL1BPEH) as per the manufacturer's instructions.
Compounds, once produced and prepared according to the present invention, can be assessed in variety of assays to characterize their activities. For example, NLRP3-dependent IL1β secretion was evaluated in THP1 cells. IC50 values of IL1β inhibition were calculated from the plot of percentage of inhibition versus the inhibitor concentration by a logistics fit. TABLE I depict examples of compounds according to generic Formula I. Data which is <1 nM is listed as *****; data 1-10 nM is listed as ****; data 10-100 nM is listed as ***, data 100-300 nM is listed as **, data ≥300 nM is listed as *.

T1 sequence (Q96P20 whole entry): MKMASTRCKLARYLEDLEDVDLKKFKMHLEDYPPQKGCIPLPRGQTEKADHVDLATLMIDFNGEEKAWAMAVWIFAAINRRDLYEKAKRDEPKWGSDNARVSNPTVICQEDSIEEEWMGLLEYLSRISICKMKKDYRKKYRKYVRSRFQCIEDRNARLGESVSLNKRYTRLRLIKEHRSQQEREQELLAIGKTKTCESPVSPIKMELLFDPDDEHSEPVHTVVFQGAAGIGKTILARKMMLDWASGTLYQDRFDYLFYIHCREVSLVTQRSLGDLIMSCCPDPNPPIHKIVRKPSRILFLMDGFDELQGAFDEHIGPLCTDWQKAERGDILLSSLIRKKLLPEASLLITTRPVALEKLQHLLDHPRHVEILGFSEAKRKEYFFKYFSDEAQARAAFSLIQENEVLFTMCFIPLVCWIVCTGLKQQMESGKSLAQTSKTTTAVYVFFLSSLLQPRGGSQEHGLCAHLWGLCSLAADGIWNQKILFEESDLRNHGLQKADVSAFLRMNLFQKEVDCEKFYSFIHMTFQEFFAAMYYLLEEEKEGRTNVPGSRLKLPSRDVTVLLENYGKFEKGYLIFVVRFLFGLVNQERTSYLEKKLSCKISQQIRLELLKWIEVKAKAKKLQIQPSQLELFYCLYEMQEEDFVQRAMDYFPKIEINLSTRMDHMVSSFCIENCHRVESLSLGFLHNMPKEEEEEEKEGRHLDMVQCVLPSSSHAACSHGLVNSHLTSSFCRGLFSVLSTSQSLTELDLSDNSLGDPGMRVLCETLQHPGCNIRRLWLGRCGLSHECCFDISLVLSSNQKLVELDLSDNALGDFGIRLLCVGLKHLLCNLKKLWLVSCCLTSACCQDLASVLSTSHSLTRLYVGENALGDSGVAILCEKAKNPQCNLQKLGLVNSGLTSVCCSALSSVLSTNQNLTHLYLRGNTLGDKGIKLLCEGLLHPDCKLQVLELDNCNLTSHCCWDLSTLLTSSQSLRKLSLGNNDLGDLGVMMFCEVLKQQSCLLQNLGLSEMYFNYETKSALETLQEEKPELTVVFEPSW

Row | Compound | IC50
1 | CN1CCC[C@@H](Nc2nnc(-c3ccc(OC(F)F)cc3OC(F)(F)F)c3cncn23)C1 [Compound 295, 1-[4-(difluoromethoxy)-2-(trifluoromethoxy)phenyl]-N-[(3R)-1-methylpiperidin-3-yl]imidazo[1,5-d][1,2,4]triazin-4-amine] | < 1 nM
2 | Cc1cc2c(-c3ccc(C(F)(F)F)cc3C(F)(F)F)nnc(N[C@H]3C[C@@](C)(O)C3)n2c1 [Compound 107, (1s,3s)-3-({1-[2,4-bis(trifluoromethyl)phenyl]-7-methylpyrrolo[1,2-d][1,2,4]triazin-4-yl}amino)-1-methylcyclobutan-1-ol] | 10 to 100 nM
3 | COc1ccc(-c2nnc(NC3CCNC3=O)n3cncc23)c(C(F)(F)F)c1 (stereo not drawn) [Compound 235, 3-({1-[4-methoxy-2-(trifluoromethyl)phenyl]imidazo[1,5-d][1,2,4]triazin-4-yl}amino)pyrrolidin-2-one] | 1 to 10 nM
4 | O[C@H]1CCC[C@@H](Nc2nnc(-c3ccc(C(F)(F)F)cc3OC(F)(F)F)c3cccn23)C1 [Compound 122, (1S,3R)-3-({1-[2-(trifluoromethoxy)-4-(trifluoromethyl)phenyl]pyrrolo[1,2-d][1,2,4]triazin-4-yl}amino)cyclohexan-1-ol] | 1 to 10 nM
5 | O=C1NCCC1Nc1nnc(-c2ccc(C(F)(F)F)cc2OC(F)(F)F)c2cccn12 (stereo not drawn) [Compound 124, 3-({1-[2-(trifluoromethoxy)-4-(trifluoromethyl)phenyl]pyrrolo[1,2-d][1,2,4]triazin-4-yl}amino)pyrrolidin-2-one] | 1 to 10 nM
6 | COc1ccc(-c2nnc(N[C@@H]3C[C@@H](F)CN(C)C3)n3cncc23)c(OC(F)F)c1 [Compound 224, 1-[2-(difluoromethoxy)-4-methoxyphenyl]-N-[(3R,5R)-5-fluoro-1-methylpiperidin-3-yl]imidazo[1,5-d][1,2,4]triazin-4-amine] | 1 to 10 nM
7 | COc1ccc(-c2nnc(NCc3ncco3)n3cccc23)c(OC(F)(F)F)c1 [Compound 91, 1-[4-methoxy-2-(trifluoromethoxy)phenyl]-N-[(1,3-oxazol-2-yl)methyl]pyrrolo[1,2-d][1,2,4]triazin-4-amine] | 10 to 100 nM
8 | COc1ccc(-c2nnc(NCc3nnnn3C)n3cccc23)c(OC(F)(F)F)c1 [Compound 125, 1-[4-methoxy-2-(trifluoromethoxy)phenyl]-N-[(1-methyl-1H-tetrazol-5-yl)methyl]pyrrolo[1,2-d][1,2,4]triazin-4-amine] | 100 to 300 nM
9 | O[C@H]1CCCC[C@@H]1Nc1nnc(-c2ccc(C(F)(F)F)cc2OC(F)(F)F)c2cccn12 [Compound 121, (1S,2S)-2-({1-[2-(trifluoromethoxy)-4-(trifluoromethyl)phenyl]pyrrolo[1,2-d][1,2,4]triazin-4-yl}amino)cyclohexan-1-ol] | 10 to 100 nM
10 | O=C1NCCC1Nc1nnc(-c2ccc(C(F)(F)F)cc2OC(F)(F)F)c2cncn12 (stereo not drawn) [Compound 256, 3-({1-[2-(trifluoromethoxy)-4-(trifluoromethyl)phenyl]imidazo[1,5-d][1,2,4]triazin-4-yl}amino)pyrrolidin-2-one] | < 1 nM
11 | C[C@@H](O)CNc1nnc(-c2ccc(C(F)(F)F)cc2OC(F)F)c2cccn12 [Compound 63, (2R)-1-({1-[2-(difluoromethoxy)-4-(trifluoromethyl)phenyl]pyrrolo[1,2-d][1,2,4]triazin-4-yl}amino)propan-2-ol] | 1 to 10 nM
12 | CCN1CCC[C@@H](Nc2nnc(-c3ccc(C(F)(F)F)cc3OC(F)(F)F)c3cncn23)C1 [Compound 229, N-[(3R)-1-ethylpiperidin-3-yl]-1-[2-(trifluoromethoxy)-4-(trifluoromethyl)phenyl]imidazo[1,5-d][1,2,4]triazin-4-amine] | < 1 nM
13 | COc1ccc(-c2nnc(N[C@@H]3CCCN(C)C3)n3cccc23)c(C2CC2)c1 [Compound 27, 1-(2-cyclopropyl-4-methoxyphenyl)-N-[(3R)-1-methylpiperidin-3-yl]pyrrolo[1,2-d][1,2,4]triazin-4-amine] | 1 to 10 nM
14 | O[C@@H]1COCC[C@H]1Nc1nnc(-c2ccc(C(F)(F)F)cc2CC(F)(F)F)c2cccn12 [Compound 112, (3S,4R)-4-({1-[2-(2,2,2-trifluoroethyl)-4-(trifluoromethyl)phenyl]pyrrolo[1,2-d][1,2,4]triazin-4-yl}amino)oxan-3-ol] | 1 to 10 nM
15 | CCN1CCC[C@@H](Nc2nnc(-c3ccc(OC)cc3C(F)(F)F)c3c(F)ccn23)C1 [Compound 17, N-[(3R)-1-ethylpiperidin-3-yl]-8-fluoro-1-[4-methoxy-2-(trifluoromethyl)phenyl]pyrrolo[1,2-d][1,2,4]triazin-4-amine] | 1 to 10 nM
16 | CC(Nc1nnc(-c2ccc(C(F)(F)F)cc2CC(F)(F)F)c2cncn12)c1cccc(O)c1 (stereo not drawn) [Compound 266] | < 1 nM
17 | O[C@@H]1CCCCC[C@@H]1Nc1nnc(-c2ccc(C(F)(F)F)cc2CC(F)(F)F)c2cccn12 (racemic) [Compound 126, (1S,2R)-2-({1-[2-(2,2,2-trifluoroethyl)-4-(trifluoromethyl)phenyl]pyrrolo[1,2-d][1,2,4]triazin-4-yl}amino)cycloheptan-1-ol AND (1R,2S)-2-({1-[2-(2,2,2-trifluoroethyl)-4-(trifluoromethyl)phenyl]pyrrolo[1,2-d][1,2,4]triazin-4-yl}amino)cycloheptan-1-ol] | 1 to 10 nM

The remaining lines, values ahead:

Row | IC50 | Compound
18 | 100 to 300 nM | COc1ccc(-c2nnc(NC(C)c3cccnc3)n3cncc23)c(OC(F)(F)F)c1 (single isomer, unassigned) [Compound 308]
19 | 10 to 100 nM | Cc1ccc(-c2nnc(N[C@@H]3CCCN(C)C3)n3nc(C)cc23)c(C(F)F)c1 [Compound 364, 4-[2-(difluoromethyl)-4-methylphenyl]-2-methyl-N-[(3R)-1-methylpiperidin-3-yl]pyrazolo[1,5-d][1,2,4]triazin-7-amine]
20 | 10 to 100 nM | CCN1CCC[C@@H](Nc2nnc(-c3ccc(C)cc3S(C)(=O)=O)c3cc(C)nn23)C1 [Compound 368, N-[(3R)-1-ethylpiperidin-3-yl]-4-[2-(methanesulfonyl)-4-methylphenyl]-2-methylpyrazolo[1,5-d][1,2,4]triazin-7-amine]
21 | 10 to 100 nM | COCC1CC(Nc2nnc(-c3ccc(C(F)(F)F)cc3OC(F)(F)F)c3cncn23)C1 (stereo not drawn) [Compound 324, N-[3-(methoxymethyl)cyclobutyl]-1-[2-(trifluoromethoxy)-4-(trifluoromethyl)phenyl]imidazo[1,5-d][1,2,4]triazin-4-amine]
22 | 10 to 100 nM | CC(C)(O)C1CC(Nc2nnc(-c3ccc(C(F)(F)F)cc3OC(F)(F)F)c3cncn23)C1 (stereo not drawn) [Compound 325, 2-[3-({1-[2-(trifluoromethoxy)-4-(trifluoromethyl)phenyl]imidazo[1,5-d][1,2,4]triazin-4-yl}amino)cyclobutyl]propan-2-ol]
23 | 10 to 100 nM | Cc1ccc(-c2nnc(N[C@H]3C[C@@](C)(O)C3)n3cncc23)c(OC(F)F)c1 [Compound 344, (1s,3s)-3-({1-[2-(difluoromethoxy)-4-methylphenyl]imidazo[1,5-d][1,2,4]triazin-4-yl}amino)-1-methylcyclobutan-1-ol]
24 | 1 to 10 nM | COc1ccc(-c2nnc(N[C@H]3C[C@@H](CO)C3)n3cncc23)c(CC(F)(F)F)c1 [Compound 314, [(1s,3s)-3-({1-[4-methoxy-2-(2,2,2-trifluoroethyl)phenyl]imidazo[1,5-d][1,2,4]triazin-4-yl}amino)cyclobutyl]methanol]
